The text below walks through data of ChEMBL document CHEMBL5291721, “A preclinical secondary pharmacology resource illuminates target-adverse drug reaction associations of marketed drugs” (Nat Commun, 2023).

The target in assay [1] is 5-hydroxytryptamine receptor 2B (Homo sapiens, UniProt P41595). The format is functional, cell-based.
In assay [2] the target is T1, Thromboxane A2 receptor (Homo sapiens, UniProt P21731).
T1 sequence (P21731 whole entry): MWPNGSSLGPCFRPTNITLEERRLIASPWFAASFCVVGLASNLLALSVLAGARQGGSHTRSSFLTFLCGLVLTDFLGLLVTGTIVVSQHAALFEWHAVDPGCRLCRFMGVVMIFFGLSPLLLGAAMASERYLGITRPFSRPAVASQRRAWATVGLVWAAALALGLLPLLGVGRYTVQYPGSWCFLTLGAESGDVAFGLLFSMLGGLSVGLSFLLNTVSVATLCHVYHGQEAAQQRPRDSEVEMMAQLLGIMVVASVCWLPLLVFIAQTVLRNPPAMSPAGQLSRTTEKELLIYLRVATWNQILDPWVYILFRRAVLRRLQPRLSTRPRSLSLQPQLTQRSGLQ
It counts as functional, cell-based.

The target in assay [3] is T1, Thromboxane A2 receptor. The format is functional, cell-based. This is another data set of the same source.
Assay [4] deals with D(3) dopamine receptor (Homo sapiens, UniProt P35462).
D(3) dopamine receptor, sequence (P35462 whole entry): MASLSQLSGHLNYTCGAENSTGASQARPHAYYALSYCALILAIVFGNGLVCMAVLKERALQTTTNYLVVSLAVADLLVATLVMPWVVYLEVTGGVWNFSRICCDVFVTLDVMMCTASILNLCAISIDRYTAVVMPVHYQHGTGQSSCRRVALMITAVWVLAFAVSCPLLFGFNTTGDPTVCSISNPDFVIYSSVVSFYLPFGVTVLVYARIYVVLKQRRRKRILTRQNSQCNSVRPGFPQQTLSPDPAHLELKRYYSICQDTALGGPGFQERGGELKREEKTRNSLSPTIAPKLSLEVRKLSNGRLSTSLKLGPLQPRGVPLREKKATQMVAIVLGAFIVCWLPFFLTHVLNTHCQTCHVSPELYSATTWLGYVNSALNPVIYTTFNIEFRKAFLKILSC
Assay [5] deals with T2, 5-hydroxytryptamine receptor 1A (Homo sapiens, UniProt P08908).
T2 sequence (P08908 whole entry): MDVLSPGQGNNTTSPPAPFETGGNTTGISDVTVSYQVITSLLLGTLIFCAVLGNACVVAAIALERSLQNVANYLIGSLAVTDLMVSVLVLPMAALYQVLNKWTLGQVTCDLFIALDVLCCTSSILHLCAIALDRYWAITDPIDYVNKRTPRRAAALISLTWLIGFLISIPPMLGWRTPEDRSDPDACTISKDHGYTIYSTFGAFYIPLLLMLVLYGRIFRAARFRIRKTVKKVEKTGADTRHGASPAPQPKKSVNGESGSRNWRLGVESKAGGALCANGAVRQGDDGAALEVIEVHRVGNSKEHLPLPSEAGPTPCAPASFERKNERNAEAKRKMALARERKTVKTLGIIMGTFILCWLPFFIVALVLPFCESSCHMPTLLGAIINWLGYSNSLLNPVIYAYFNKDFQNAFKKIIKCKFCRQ

The target of assay [6] is Mu-type opioid receptor (Homo sapiens, UniProt P35372).
Mu-type opioid receptor, sequence (P35372 whole entry): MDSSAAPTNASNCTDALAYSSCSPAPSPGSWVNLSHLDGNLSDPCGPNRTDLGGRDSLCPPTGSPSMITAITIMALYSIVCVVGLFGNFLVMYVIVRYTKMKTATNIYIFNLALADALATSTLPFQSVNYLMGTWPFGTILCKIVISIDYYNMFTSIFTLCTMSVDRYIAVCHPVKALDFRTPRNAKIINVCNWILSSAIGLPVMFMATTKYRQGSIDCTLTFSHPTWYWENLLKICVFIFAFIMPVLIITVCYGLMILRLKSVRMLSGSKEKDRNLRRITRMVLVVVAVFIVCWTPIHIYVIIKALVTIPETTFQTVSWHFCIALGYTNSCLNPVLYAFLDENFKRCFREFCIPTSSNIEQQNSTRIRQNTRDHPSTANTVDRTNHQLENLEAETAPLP
Assay [7] has as its target Prostaglandin G/H synthase 1 (Homo sapiens, UniProt P23219). It counts as functional.
The target in assay [8] is T3, Progesterone receptor (Homo sapiens, UniProt P06401).
T3 sequence (P06401 whole entry): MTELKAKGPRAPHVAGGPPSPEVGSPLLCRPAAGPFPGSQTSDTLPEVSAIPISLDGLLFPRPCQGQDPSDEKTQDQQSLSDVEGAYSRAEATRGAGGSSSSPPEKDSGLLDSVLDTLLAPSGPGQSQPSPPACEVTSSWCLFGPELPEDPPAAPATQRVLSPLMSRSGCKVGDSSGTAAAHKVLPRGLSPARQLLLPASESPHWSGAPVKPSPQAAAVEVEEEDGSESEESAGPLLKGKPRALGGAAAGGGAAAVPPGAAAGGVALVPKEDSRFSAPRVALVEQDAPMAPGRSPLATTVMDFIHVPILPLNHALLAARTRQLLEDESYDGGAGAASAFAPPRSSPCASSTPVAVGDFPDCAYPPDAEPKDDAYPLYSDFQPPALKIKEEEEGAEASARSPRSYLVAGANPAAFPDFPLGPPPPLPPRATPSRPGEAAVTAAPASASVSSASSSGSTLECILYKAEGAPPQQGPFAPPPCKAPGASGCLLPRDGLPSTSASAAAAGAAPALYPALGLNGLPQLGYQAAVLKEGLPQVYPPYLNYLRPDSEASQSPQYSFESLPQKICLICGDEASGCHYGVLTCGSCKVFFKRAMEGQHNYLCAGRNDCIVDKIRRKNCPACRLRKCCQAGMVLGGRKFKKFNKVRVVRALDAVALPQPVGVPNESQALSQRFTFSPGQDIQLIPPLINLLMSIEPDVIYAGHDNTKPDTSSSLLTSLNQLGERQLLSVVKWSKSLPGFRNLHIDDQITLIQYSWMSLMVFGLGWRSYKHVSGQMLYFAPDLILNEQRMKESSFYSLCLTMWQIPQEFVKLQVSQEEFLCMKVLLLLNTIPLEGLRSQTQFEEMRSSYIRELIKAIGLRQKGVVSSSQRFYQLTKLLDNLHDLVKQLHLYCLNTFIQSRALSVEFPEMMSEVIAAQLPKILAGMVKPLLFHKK
The format is functional.

Assay [9] addresses T4, Muscarinic acetylcholine receptor M2 (Homo sapiens, UniProt P08172).
T4 sequence (P08172 whole entry): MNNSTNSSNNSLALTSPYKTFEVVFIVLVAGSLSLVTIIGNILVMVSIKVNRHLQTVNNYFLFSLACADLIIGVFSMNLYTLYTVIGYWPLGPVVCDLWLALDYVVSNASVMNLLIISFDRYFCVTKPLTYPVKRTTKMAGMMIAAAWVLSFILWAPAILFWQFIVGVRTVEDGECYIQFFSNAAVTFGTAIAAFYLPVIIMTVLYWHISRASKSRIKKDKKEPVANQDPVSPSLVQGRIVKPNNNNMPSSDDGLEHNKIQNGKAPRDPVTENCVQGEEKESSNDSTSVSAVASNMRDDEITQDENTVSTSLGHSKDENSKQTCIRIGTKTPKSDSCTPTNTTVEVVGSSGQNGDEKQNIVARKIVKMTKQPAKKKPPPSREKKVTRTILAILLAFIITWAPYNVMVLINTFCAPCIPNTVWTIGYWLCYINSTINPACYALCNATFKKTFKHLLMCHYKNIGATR
It counts as functional, cell-based.

Assay [10] has as its target Voltage-dependent L-type calcium channel subunit alpha-1C (Rattus norvegicus, UniProt P22002). It counts as functional.
The target in assay [11] is Beta-2 adrenergic receptor (Homo sapiens, UniProt P07550).
Beta-2 adrenergic receptor, sequence (P07550 whole entry): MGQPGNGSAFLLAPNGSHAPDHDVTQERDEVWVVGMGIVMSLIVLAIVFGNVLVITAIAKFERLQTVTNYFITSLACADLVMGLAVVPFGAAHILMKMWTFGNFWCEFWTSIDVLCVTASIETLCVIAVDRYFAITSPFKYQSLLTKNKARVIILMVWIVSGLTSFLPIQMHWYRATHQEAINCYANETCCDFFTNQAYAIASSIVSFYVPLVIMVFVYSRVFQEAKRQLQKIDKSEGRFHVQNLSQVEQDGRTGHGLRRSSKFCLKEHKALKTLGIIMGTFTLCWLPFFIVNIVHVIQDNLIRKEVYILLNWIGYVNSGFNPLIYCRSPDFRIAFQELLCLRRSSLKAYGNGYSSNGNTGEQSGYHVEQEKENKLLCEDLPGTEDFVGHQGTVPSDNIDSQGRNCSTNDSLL
Also: assay procedure not described here.

Voltage-dependent L-type calcium channel subunit alpha-1C, sequence (P22002 whole entry): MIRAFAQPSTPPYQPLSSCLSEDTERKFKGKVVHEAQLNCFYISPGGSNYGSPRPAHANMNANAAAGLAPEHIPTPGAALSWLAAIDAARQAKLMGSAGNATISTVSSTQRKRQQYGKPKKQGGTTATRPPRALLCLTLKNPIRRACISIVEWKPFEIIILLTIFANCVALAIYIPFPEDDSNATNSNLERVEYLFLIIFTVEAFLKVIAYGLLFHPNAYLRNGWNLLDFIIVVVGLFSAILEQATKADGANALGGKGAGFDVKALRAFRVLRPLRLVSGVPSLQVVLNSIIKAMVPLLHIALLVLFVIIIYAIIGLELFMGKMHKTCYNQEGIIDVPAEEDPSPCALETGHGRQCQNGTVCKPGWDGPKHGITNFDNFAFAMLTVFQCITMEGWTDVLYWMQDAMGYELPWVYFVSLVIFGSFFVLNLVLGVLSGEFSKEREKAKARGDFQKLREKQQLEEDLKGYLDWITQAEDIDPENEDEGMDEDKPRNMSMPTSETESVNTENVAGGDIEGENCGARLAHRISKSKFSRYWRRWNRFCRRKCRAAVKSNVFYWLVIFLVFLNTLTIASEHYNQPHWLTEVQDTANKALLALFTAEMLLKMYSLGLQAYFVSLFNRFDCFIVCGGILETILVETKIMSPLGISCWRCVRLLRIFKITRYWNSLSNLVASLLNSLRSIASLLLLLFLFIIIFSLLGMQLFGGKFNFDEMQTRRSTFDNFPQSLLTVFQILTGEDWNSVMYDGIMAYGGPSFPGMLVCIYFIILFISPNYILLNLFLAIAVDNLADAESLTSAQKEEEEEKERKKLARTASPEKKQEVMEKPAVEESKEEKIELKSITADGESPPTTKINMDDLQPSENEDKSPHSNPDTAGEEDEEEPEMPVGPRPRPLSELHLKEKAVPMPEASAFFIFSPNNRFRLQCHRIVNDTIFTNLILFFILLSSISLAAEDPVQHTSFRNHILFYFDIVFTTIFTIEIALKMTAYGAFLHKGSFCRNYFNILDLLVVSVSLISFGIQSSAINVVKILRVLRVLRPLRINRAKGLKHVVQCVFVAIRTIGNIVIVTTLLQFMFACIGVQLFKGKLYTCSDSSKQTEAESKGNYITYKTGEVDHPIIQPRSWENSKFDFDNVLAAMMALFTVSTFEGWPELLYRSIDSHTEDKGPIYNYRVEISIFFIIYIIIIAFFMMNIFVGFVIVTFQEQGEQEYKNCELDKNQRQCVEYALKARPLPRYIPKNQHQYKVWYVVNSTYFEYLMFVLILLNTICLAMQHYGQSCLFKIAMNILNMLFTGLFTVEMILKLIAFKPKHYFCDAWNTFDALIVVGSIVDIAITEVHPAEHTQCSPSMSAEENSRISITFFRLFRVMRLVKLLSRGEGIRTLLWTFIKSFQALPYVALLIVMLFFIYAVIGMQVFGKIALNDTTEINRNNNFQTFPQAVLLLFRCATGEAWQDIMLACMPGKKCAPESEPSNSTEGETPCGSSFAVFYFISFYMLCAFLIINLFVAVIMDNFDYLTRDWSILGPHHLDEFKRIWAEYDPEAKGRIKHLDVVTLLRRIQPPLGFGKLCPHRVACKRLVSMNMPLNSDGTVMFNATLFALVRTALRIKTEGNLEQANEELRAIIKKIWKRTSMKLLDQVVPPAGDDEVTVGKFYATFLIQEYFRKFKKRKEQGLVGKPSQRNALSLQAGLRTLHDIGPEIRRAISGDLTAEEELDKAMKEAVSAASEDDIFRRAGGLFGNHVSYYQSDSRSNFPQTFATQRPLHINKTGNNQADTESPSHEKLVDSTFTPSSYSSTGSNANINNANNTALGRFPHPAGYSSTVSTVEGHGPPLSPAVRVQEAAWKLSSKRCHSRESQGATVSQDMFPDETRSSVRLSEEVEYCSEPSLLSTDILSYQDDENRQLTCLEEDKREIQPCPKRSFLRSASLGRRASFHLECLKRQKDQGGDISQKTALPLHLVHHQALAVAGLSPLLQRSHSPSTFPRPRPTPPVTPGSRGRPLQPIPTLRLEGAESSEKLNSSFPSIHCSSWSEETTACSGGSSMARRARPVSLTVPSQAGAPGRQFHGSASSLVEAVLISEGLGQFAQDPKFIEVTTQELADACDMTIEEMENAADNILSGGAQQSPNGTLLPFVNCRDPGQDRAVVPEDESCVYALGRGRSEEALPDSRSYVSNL
Prostaglandin G/H synthase 1, sequence (P23219 whole entry): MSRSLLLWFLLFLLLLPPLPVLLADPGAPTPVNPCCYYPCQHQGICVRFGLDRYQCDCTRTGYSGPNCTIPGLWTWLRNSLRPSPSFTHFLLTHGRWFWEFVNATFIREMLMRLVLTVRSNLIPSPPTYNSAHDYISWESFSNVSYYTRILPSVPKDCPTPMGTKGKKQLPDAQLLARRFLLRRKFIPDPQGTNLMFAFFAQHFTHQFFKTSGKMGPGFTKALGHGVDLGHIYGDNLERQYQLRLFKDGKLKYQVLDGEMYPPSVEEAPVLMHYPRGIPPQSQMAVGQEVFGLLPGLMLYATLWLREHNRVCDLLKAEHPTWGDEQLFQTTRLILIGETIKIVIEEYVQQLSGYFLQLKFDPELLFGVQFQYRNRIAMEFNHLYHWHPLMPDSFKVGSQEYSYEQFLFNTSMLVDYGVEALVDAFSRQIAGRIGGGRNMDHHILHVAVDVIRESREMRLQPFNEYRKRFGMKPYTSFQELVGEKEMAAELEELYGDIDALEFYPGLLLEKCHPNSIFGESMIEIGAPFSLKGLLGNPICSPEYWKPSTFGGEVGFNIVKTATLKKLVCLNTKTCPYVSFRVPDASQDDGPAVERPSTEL
5-hydroxytryptamine receptor 2B, sequence (P41595 whole entry): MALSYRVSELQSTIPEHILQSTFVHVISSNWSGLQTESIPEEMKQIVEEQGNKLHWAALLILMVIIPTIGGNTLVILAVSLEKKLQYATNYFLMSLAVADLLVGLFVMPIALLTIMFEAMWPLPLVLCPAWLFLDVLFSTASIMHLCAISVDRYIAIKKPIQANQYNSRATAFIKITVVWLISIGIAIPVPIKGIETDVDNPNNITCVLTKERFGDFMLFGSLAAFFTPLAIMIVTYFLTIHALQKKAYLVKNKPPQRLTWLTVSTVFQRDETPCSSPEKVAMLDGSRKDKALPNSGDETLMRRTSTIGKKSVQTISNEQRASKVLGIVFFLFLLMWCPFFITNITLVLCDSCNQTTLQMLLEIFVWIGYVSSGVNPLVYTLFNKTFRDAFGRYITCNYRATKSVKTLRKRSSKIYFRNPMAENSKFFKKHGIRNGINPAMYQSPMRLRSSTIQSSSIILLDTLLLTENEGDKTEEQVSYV

Turning to `CC(C)N(CCNC(=O)CN1CCCC1=O)C(C)C`, the concentration at half-maximal activity (AC50) in [1], in assay [2], in assay [3], in [4], in [5] and in assay [6] was over 30 µM throughout. Besides, in assay [7], the AC50 was over 30 µM.
As to `Cc1cc(N)c2ccccc2[n+]1CCCCCCCCCC[n+]1c(C)cc(N)c2ccccc21`, the AC50 in [2] is over 30 µM; in [3], over 30 µM; in [4], 0.0798 µM; in [5], 2.53 µM; in assay [6], 0.684 µM; in [7], 1.57 µM.
As to `CCOC(=O)[C@H](CCc1ccccc1)N[C@@H](C)C(=O)N(CC(=O)O)C1Cc2ccccc2C1`, the AC50 in assay [1], in assay [2], in assay [3], in assay [4], in assay [5] and in assay [6] was over 30 µM in each case. Further, the AC50 in assay [7] is over 30 µM.
As for `C=CCSCC1Nc2cc(Cl)c(S(N)(=O)=O)cc2S(=O)(=O)N1` (stereo not given) [ALTHIAZIDE], the AC50 in assay [1], in [2], in [3], in assay [4], in assay [5] and in [6] was over 30 µM in each case. In addition, the AC50 in assay [7] was over 30 µM.
On to `CCN(CCCc1ccccc1)CCCc1ccccc1` [ALVERINE], for which the AC50 in assay [1] was over 30 µM; in assay [2] it was over 30 µM; in assay [3] it was over 30 µM; in assay [4], 1.96 µM; in [5] it was 0.029 µM; in assay [6] it was 2 µM. Moreover, the AC50 in [7] is over 30 µM.
For the compound `COc1cc(N2CCC(N3CCN(C)CC3)CC2)ccc1Nc1ncc(Cl)c(Nc2ccccc2P(C)(C)=O)n1` [BRIGATINIB], the AC50 in assay [1], in assay [2], in assay [3], in [4], in assay [5] and in [6] was over 30 µM throughout. The same compound returned a half-maximal activity concentration (AC50) in assay [7] of 26.3 µM.
As for `CN(C)CCOC(c1ccccc1)c1ccc(Br)cc1` (stereo not given) [BROMODIPHENHYDRAMINE], the AC50 in assay [1] was over 30 µM; in [2], over 30 µM; in assay [3], 14.8 µM; in [4] it was 2.68 µM; in [5], 22.2 µM; in [6], 17.9 µM. The compound further had an AC50 in assay [7] of over 30 µM.
Regarding `CCC(C)C1(CC)C(=O)NC(=O)NC1=O` (stereo not given) [BUTABARBITAL], the AC50 in assay [8] and in assay [9] was over 30 µM in each case.
As for `CC(=O)O[C@]1(C(C)=O)CC[C@H]2[C@@H]3C=C(Cl)C4=CC(=O)CC[C@]4(C)[C@H]3CC[C@@]21C` [CHLORMADINONE ACETATE], the AC50 in [1] was over 30 µM; in assay [2], over 30 µM; in assay [3], 28.5 µM; in assay [4], over 30 µM; in assay [5], over 30 µM; in [6], over 30 µM. In [7], this compound returned an AC50 of over 30 µM.
For the compound `NC(=O)OCC(O)COc1ccc(Cl)cc1` (stereo not given) [CHLORPHENESIN CARBAMATE], the AC50 in [1], in [2], in assay [3], in [4], in assay [5] and in assay [6] was over 30 µM in each case. In [7], this compound displayed a half-maximal activity concentration (AC50) of over 30 µM.
Regarding `O=C(O)c1cn(C2CC2)c2cc(N3CCNCC3)c(F)cc2c1=O` [CIPROFLOXACIN], the AC50 in assay [2] and in [3] was over 30 µM each time.
On to `COc1cc(N)c(Cl)cc1C(=O)NC1CCN(Cc2ccccc2)CC1` [CLEBOPRIDE], for which the AC50 in assay [10], in [8], in [9] and in assay [11] was over 30 µM throughout.
Turning to `Cc1ccccc1N1CCN(CCc2nnc3n2CCCC3)CC1` [DAPIPRAZOLE], the AC50 in assay [1] is over 30 µM; in [2], over 30 µM; in assay [3], over 30 µM; in assay [4] it was 16.6 µM; in assay [5], 0.628 µM; in assay [6], over 30 µM. The compound further returned an AC50 in [7] of over 30 µM.
Regarding `C[C@]12CC[C@@H]3c4ccc(O)cc4C[C@@H](CCCCCCCCC[S+]([O-])CCCC(F)(F)C(F)(F)F)[C@H]3[C@@H]1CC[C@@H]2O` (stereo not given in full) [FULVESTRANT], the AC50 in [8] and in assay [9] was over 30 µM in each case.
As for `CN(C)CCCNc1c2ccccc2nc2cccc([N+](=O)[O-])c12` [NITRACRINE], the AC50 is over 30 µM in assay [10], over 30 µM in [8], 16 µM in assay [9] and over 30 µM in [11].
For the compound `Clc1ccc2c(N3CCN(CCCN4CCN(c5ccnc6cc(Cl)ccc56)CC4)CC3)ccnc2c1` [PIPERAQUINE], the AC50 in assay [10], in assay [8], in [9] and in [11] was over 30 µM each time.
In the case of `COc1ccc(CN(CCN(C)C)c2ccccn2)cc1` [PYRILAMINE], the AC50 is over 30 µM in assay [1]; over 30 µM in [2]; over 30 µM in assay [3]; 26.4 µM in assay [5]; 9.05 µM in [6]; over 30 µM in assay [7].
On to `CNCc1ccc(-c2[nH]c3cc(F)cc4c3c2CCNC4=O)cc1` [RUCAPARIB], for which the AC50 in [8] is 15.6 µM; in assay [9], over 10 µM; in assay [11], over 30 µM.
For the compound `CC1(C)S[C@@H]2[C@H](NC(=O)[C@H](N)c3ccccc3)C(=O)N2[C@H]1C(=O)OCOC(=O)[C@@H]1N2C(=O)C[C@H]2S(=O)(=O)C1(C)C` [SULTAMICILLIN], the AC50 in assay [10], in assay [8], in assay [9] and in assay [11] was over 30 µM each time.
As to `Cc1cccc(N2CC(CO)OC2=O)c1` (stereo not given) [TOLOXATONE], the AC50 in [10], in [8] and in assay [9] was over 30 µM each time.
For `CCC(C)C(CC)C(N)=O` (stereo not given) [VALNOCTAMIDE], the AC50 in [8] and in [9] was over 30 µM each time.
In turn, `CCOC(=O)C1=C[C@]2(CC)CCCN3CCc4c(n1c1ccccc41)[C@@H]32` [VINPOCETINE] registered a concentration at half-maximal activity (AC50) in assay [8] of over 30 µM.
As to `Cc1cc(C(C)(C)C)cc(C)c1CC1=NCCN1` [XYLOMETAZOLINE], the AC50 in assay [10] is over 30 µM; in assay [8] it was over 30 µM; in [9], 12.1 µM; in assay [11] it was over 30 µM.
